The values below are quoted from earlier work in patent US20240209053A1 (Protagonist Therapeutics, Inc., priority 2021, published 2024).

The data set deals with T1, ferroportin fused to green fluorescent protein (Mus musculus, UniProt Q9JHI9).
T1 sequence (Q9JHI9 1-570): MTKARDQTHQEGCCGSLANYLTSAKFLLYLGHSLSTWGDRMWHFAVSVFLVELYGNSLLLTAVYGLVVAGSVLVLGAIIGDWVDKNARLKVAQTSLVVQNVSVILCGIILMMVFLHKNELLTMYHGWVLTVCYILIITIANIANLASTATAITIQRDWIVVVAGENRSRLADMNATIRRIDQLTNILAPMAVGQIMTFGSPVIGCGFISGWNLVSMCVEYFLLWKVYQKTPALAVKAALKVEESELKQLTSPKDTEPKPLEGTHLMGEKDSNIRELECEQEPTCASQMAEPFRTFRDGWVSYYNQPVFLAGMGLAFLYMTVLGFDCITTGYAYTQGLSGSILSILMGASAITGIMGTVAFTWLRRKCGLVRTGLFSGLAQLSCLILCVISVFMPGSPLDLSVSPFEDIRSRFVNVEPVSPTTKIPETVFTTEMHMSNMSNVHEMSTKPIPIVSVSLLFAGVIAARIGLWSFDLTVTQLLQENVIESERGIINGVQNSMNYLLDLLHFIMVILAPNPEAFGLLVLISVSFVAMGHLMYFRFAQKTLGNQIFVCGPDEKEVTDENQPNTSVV
Conditions: read-out: EC50 (50% of maximal loss of fluorescence); cells incubated 24 hours; reference preparations of Hep25; cited from earlier work.

Broadly, the EC50 is the concentration giving half of the maximal effect. For the compound `CC[C@H](C)[C@@H]1NC(=O)[C@@H](NC(=O)[C@@H](NC(=O)[C@@H]2CCCN2C(=O)[C@H](Cc2ccccc2)NC(=O)[C@H](Cc2c[nH]cn2)NC(=O)[C@@H](NC(=O)[C@@H](N)CC(=O)O)[C@@H](C)O)[C@@H](C)CC)CSSC[C@@H](C(=O)N[C@@H](CCCCN)C(=O)N[C@H](C(=O)O)[C@@H](C)O)NC(=O)[C@@H]2CSSC[C@@H]3NC(=O)[C@@H]4CSSC[C@H](NC(=O)[C@H](Cc5ccccc5)NC1=O)C(=O)N[C@@H](CSSC[C@H](NC(=O)[C@H](CCCCN)NC(=O)[C@H](CO)NC(=O)[C@H](CCCNC(=N)N)NC(=O)[C@H](Cc1c[nH]cn1)NC3=O)C(=O)NCC(=O)N[C@@H](CCSC)C(=O)N2)C(=O)NCC(=O)N4` [Hepcidin, Hy-DTHFPIC(1)IFC(2)C(3)GC(2)C(4)HRSKC(3)GMC(4)C(1)KT-OH], the EC50 is 5 to 15 nM.
